Test results taken from ChEMBL document CHEMBL1151416, “Revised structure of phaeantharine” (1983).

Legend:
Bacillus subtilis = assay: Antibacterial activity against Bacillus subtilis by agar-diffusion test; type: functional
Staphylococcus aureus = assay: Antibacterial activity against Staphylococcus aureus by agar-diffusion test; type: functional

MIC (Bacillus subtilis): 74 µg/mL
MIC (Staphylococcus aureus): 86 µg/mL
SMILES: COc1cc2cc[n+](C)c(Cc3ccc(Oc4cc(Cc5c6cc(OC)c(OC)cc6cc[n+]5C)ccc4OC)cc3)c2cc1OC [PHAEANTHARINE]
